# US11230543B2, “Biaryl monobactam compounds and methods of use thereof for the treatment of bacterial infections” (priority 2015, dated 2022)
# Counter-ions that a name gives are not always drawn.
# Experiments:
# [1] = test system: Klebsiella pneumoniae expressing KPC-1 (CL6569); assay: Antibiotic activity: growth inhibitory concentration (OD600), Klebsiella pneumoniae CL6569; type: cell-based; details: lowest concentration inhibiting 95% of bacterial growth; in the presence of β lactamase inhibitor Relebactam 4 μg/mL; 35±2° C. for 22 hours; tested range 100 μM to 0.098 μM
# Summary of the method: (§1)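 Growth inhibition by OD600 after 22 hours incubation at 35±2° C, reported as lowest concentration inhibiting 95% of growth (MITC95). Final compound range 100 μM to 0.098 μM, always combined with β-lactamase inhibitor relebactam (4 μg/mL final); inoculum ~2×10^5 CFU/mL in cation-adjusted Mueller-Hinton II broth.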
# [2] = test system: Pseudomonas aeruginosa expressing AmpC (CL5701); assay: Antibiotic activity: growth inhibitory concentration (OD600), Pseudomonas aeruginosa CL5701; type: cell-based; details: lowest concentration inhibiting 95% of bacterial growth; in the presence of β lactamase inhibitor Relebactam 4 μg/mL; 35±2° C. for 22 hours; tested range 100 μM to 0.098 μM
# Summary of the method: as §1
SMILES,KP_CL6569 MITC95 [1] [µM],PA_CL5701 MITC95 [2] [µM]
"C[n+]1cc(-c2ccc(OCC(O/N=C(\C(=O)N[C@@H]3C(=O)N(OS(=O)(=O)O)C3(C)C)c3csc(N)n3)P(=O)(O)O)cc2)cn1CCCN (stereo partly drawn) [Example 40, (3S)-3-((Z)-2-((2-(4-(1-(3-aminopropyl)-2-methyl-1H-pyrazol-2-ium-4-yl)phenoxy)-1-phosphonoethoxy)imino)-2-(2-aminothiazol-4-yl)acetamido)-2,2-dimethyl-4-oxoazetidin-1-yl sulfate]",3.125,50
"COP(=O)(O)[C@H](COc1ccc(-c2cn(CCCN)[n+](C)c2)cc1)O/N=C(\C(=O)N[C@@H]1C(=O)N(OS(=O)(=O)O)C1(C)C)c1csc(N)n1.O=C(O)C(F)(F)F [Example 41, (3S)-3-((Z)-2-(((1R)-2-(4-(1-(3-aminopropyl)-2-methyl-1H-pyrazol-2-ium-4-yl)phenoxy)-1-(hydroxy(methoxy)phosphoryl)ethoxy)imino)-2-(2-aminothiazol-4-yl)acetamido)-2,2-dimethyl-4-oxoazetidin-1-yl sulfate compound with 2,2,2-trifluoroacetic acid (1:1)]",1.563,25
"C[n+]1cc(-c2ccc(OC[C@H](O/N=C(\C(=O)N[C@@H]3C(=O)N(OS(=O)(=O)O)C3(C)C)c3csc(N)n3)C(=O)O)cc2)cn1CC(O)CN (stereo partly drawn) [Example 42, (3S)-3-((Z)-2-(((1S)-2-(4-(1-(3-amino-2-hydroxypropyl)-2-methyl-1H-pyrazol-2-ium-4-yl)phenoxy)-1-carboxyethoxy)imino)-2-(2-aminothiazol-4-yl)acetamido)-2,2-dimethyl-4-oxoazetidin-1-yl sulfate]",0.3906,3.125
"C[n+]1cc(-c2ccc(OC[C@H](O/N=C(\C(=O)N[C@@H]3C(=O)N(OS(=O)(=O)O)C3(C)C)c3csc(N)n3)C(=O)O)cc2F)cn1CC(O)CN.O=CO (stereo partly drawn) [Example 44, (3S)-3-((Z)-2-(((1S)-2-(4-(1-(3-amino-2-hydroxypropyl)-2-methyl-1H-pyrazol-2-ium-4-yl)-3-fluorophenoxy)-1-carboxyethoxy)imino)-2-(2-aminothiazol-4-yl)acetamido)-2,2-dimethyl-4-oxoazetidin-1-yl sulfate compound with formic acid (1:1)]",0.1953,3.125
"C[n+]1c(N)c(-c2ccc(OC[C@H](O/N=C(\C(=O)N[C@@H]3C(=O)N(OS(=O)(=O)[O-])C3(C)C)c3csc(N)n3)C(=O)O)cc2F)cn1CCCN [Example 47, (S)-3-((Z)-2-(((S)-2-(4-(3-Amino-1-(3-aminopropyl)-2-methyl-1H-pyrazol-2-ium-4-yl)-3-fluorophenoxy)-1-carboxyethoxy)imino)-2-(2-aminothiazol-4-yl)acetamido)-2,2-dimethyl-4-oxoazetidin-1-yl sulfate]",0.3906,3.125
"C[n+]1c(N)c(-c2ccc(OC[C@H](O/N=C(\C(=O)N[C@@H]3C(=O)N(OS(=O)(=O)[O-])C3(C)C)c3nc(N)sc3Cl)C(=O)O)cc2F)cn1CCCN [Example 48, (S)-3-((Z)-2-(((S)-2-(4-(3-Amino-1-(3-aminopropyl)-2-methyl-1H-pyrazol-2-ium-4-yl)-3-fluorophenoxy)-1-carboxyethoxy)imino)-2-(2-amino-5-chlorothiazol-4-yl)acetamido)-2,2-dimethyl-4-oxoazetidin-1-yl sulfate]",0.7813,6.25
"C[n+]1c(N)c(-c2ccc(OC[C@H](O/N=C(\C(=O)N[C@@H]3C(=O)N(OS(=O)(=O)[O-])C3(C)C)c3nc(N)sc3Cl)C(=O)O)cc2)cn1CCCN [Example 49, (S)-3-((Z)-2-(((S)-2-(4-(3-Amino-1-(3-aminopropyl)-2-methyl-1H-pyrazol-2-ium-4-yl)phenoxy)-1-carboxyethoxy)imino)-2-(2-amino-5-chlorothiazol-4-yl)acetamido)-2,2-dimethyl-4-oxoazetidin-1-yl sulfate]",0.7813,6.25
"C[n+]1cc(-c2ccc(OC[C@@](C)(O/N=C(\C(=O)N[C@@H]3C(=O)N(OS(=O)(=O)O)C3(C)C)c3nc(N)sc3Cl)C(=O)O)cc2)cn1CCCN [Example 51B, (S)-3-((Z)-2-(2-amino-5-chlorothiazol-4-yl)-2-((((R)-1-(4-(1-(3-aminopropyl)-2-methyl-1H-pyrazol-2-ium-4-yl)phenoxy)-2-carboxypropan-2-yl)oxy)imino)acetamido)-2,2-dimethyl-4-oxoazetidin-1-yl sulfate]",6.25,25
"CC1(C)[C@H](NC(=O)/C(=N\O[C@@H](COc2ccc(-c3cn(C[C@@H](O)CN)[n+](CC4CNC4)c3)cc2)C(=O)O)c2csc(N)n2)C(=O)N1OS(=O)(=O)[O-] [Example 52, (S)-3-((Z)-2-(((S)-2-(4-(1-((S)-3-Amino-2-hydroxypropyl)-2-(azetidin-3-ylmethyl)-1H-pyrazol-2-ium-4-yl)phenoxy)-1-carboxyethoxy)imino)-2-(2-aminothiazol-4-yl)acetamido)-2,2-dimethyl-4-oxoazetidin-1-yl sulfate]",0.1953,1.563
"CC1(C)[C@H](NC(=O)/C(=N\O[C@@H](COc2ccc(-c3cn(CCCN)[n+](C[C@@H]4CCNC4)c3)cc2)C(=O)O)c2csc(N)n2)C(=O)N1OS(=O)(=O)[O-] [Example 53, (S)-3-((Z)-2-(((S)-2-(4-(1-(3-aminopropyl)-2-(((R)-pyrrolidin-3-yl)methyl)-1H-pyrazol-2-ium-4-yl)phenoxy)-1-carboxyethoxy)imino)-2-(2-aminothiazol-4-yl)acetamido)-2,2-dimethyl-4-oxoazetidin-1-yl sulfate]",0.09766,1.563
"CC1(C)[C@H](NC(=O)/C(=N\O[C@@H](COc2ccc(-c3cn(CCCN)[n+](CCCN)c3)cc2)C(=O)O)c2csc(N)n2)C(=O)N1OS(=O)(=O)[O-] [Example 54, (S)-3-((Z)-2-(2-aminothiazol-4-yl)-2-(((S)-2-(4-(1,2-bis(3-aminopropyl)-1H-pyrazol-2-ium-4-yl)phenoxy)-1-carboxyethoxy)imino)acetamido)-2,2-dimethyl-4-oxoazetidin-1-yl sulfate]",0.09766,1.563
"Cn1c(-c2ccc(OC[C@H](O/N=C(\C(=O)N[C@@H]3C(=O)N(OS(=O)(=O)O)C3(C)C)c3csc(N)n3)C(=O)O)cc2)cn(CC(CN)CN)c1=N [Example 55, (S)-3-(4-(1-(3-amino-2-(aminomethyl)propyl)-2-imino-3-methyl-2,3-dihydro-1H-imidazol-4-yl)phenoxy)-2-((((Z)-1-(2-aminothiazol-4-yl)-2-(((S)-2,2-dimethyl-4-oxo-1-(sulfooxy)azetidin-3-yl)amino)-2-oxoethylidene)amino)oxy)propanoic acid]",0.1953,1.563
"CC1(C)[C@H](NC(=O)/C(=N\O[C@@H](COc2ccc([C@H]3CN=C(NCCN)N3)cc2)C(=O)O)c2csc(N)n2)C(=O)N1OS(=O)(=O)O [Example 58, (S)-3-(4-((S)-2-((2-aminoethyl)amino)-4,5-dihydro-1H-imidazol-4-yl)phenoxy)-2-((((Z)-1-(2-aminothiazol-4-yl)-2-(((S)-2,2-dimethyl-4-oxo-1-(sulfooxy)azetidin-3-yl)amino)-2-oxoethylidene)amino)oxy)propanoic acid]",0.3906,3.125
